Literature values in patent US5352587A, “Compositions and methods for the synthesis of natriuretic protein receptor B and methods of use” (Genentech, Inc., priority 1991, dated 1994).

Tested on: membrane GC
Conditions: literature refs 14, 15; cited from earlier work

## Nc1ncnc2c1ncn2[C@@H]1O[C@H](COP(=O)(O)OP(=O)(O)OP(=O)(O)O)[C@@H](O)[C@H]1O [ATP]
  effect on Vmax of membrane GC in response to ANP stimulation: increasing the Vmax of membrane GC in response to ANP stimulation
